Measurements published in patent publication US20260001834A1, “COMPOUND OR SALT THEREOF, LIPID COMPOSITION, PHARMACEUTICAL COMPOSITION, AND DELIVERY CARRIER” (FUJIFILM Corporation, priority 2023, published 2026).

Tests used:
[1] = Particle diameter and polydispersity index (PdI) of mRNA-encapsulating lipid nanoparticles; type: physicochemical; settings: EPO mRNA-encapsulating lipid nanoparticles, compound:DSPC:cholesterol:DMG-PEG2000=50:10:38.5:1.5; diluted with PBS
Description: (§1) The compounds shown in Table 9, 1,2-distearoyl-sn-glycero-3-phosphocholine (product name: COATSOME® MC-8080; NOF corporation) (hereinafter, DSPC), cholesterol (product name: Cholesterol HP; Nippon Seika Co., Ltd.), and 1,2-dimyristoyl-rac-glycero-3-(methylpolyoxyethylene 2000) (hereinafter, DMG-PEG2000) (product name: SUNBRIGHT® GM-020; NOF corporation) were dissolved in ethanol at a molar ratio (mol %) of compounds shown in Table 9:1,2-distearoyl-sn-glycero-3-phosphocholine:cholesterol:DMG-PEG2000=50:10:38.5:1.5 such that the total lipid concentration was 12.5 mmol/L, thereby obtaining an oil phase.
(§2) EPO mRNA (product name: CleanCap EPO mRNA (5moU); TriLink) was diluted with 50 mmol/L citrate buffer having a pH 4.0 such that the weight ratio of total lipid concentration to mRNA concentration is about 20:1, thereby obtaining a water phase. Then, the water phase and the oil phase were mixed together using NanoAssemblr (Precision NanoSystems) such that the volume ratio of water phase:oil phase was 3:1, and the mixed solution was 2-fold diluted with phosphate buffered physiological saline (PBS) or water, thereby obtaining a dispersion liquid of mRNA lipid nanoparticles. The dispersion liquid was dialyzed with 20 mM Tris buffer solution containing 8% sucrose using a dialysis cassette (Slide-A-Lyzer G2, MWCO: 10 kD, Thermo Fisher Scientific) to remove ethanol, thereby obtaining EPO mRNA-encapsulating lipid nanoparticles.
The particle diameter and the polydispersity index (PdI) of the mRNA-encapsulating lipid nanoparticles were obtained by measuring a dispersion liquid of lipid nanoparticles diluted with phosphate buffered physiological saline (PBS) using a particle size analyzer NanoSAQLA (Otsuka Electronics Co., Ltd.).

[2] = Encapsulation rate of mRNA in lipid nanoparticles; type: physicochemical; settings: EPO mRNA-encapsulating lipid nanoparticles, compound:DSPC:cholesterol:DMG-PEG2000=50:10:38.5:1.5
Description: as §1, §2
<Evaluation of Encapsulation Rate of mRNA> (Quantification of Total mRNA Concentration)
EPO mRNA was diluted with MilliQ water to prepare a diluted sample in 2-fold dilution series from 100 μg/mL to 3.1 μg/mL, and a standard solution for calibration was prepared. 50 μL of the standard solution for calibration or the mRNA lipid nanoparticles was mixed with 450 μL of methanol to prepare a measurement solution.
The absorbance of each measurement solution at 260 nm and 330 nm was measured using a UV plate reader (Multiskan Go, Thermo Fisher Scientific), the absorbance at 330 nm was subtracted from the absorbance at 260 nm, and the result was used as the absorbance of each measurement solution. The total water phase nucleic acid concentration was calculated from the calibration curve using the absorbance of each sample measurement solution.
(Quantification of mRNA Concentration in Outer Water Phase)
The concentration of the outer water phase nucleic acid was quantified by a standard addition method using a QuanT-iT RiboGreen RNA Assay Kit (Thermo Fisher Scientific). First, a 20×TE buffer included in the above kit was diluted with water, thereby obtaining a 1×TE buffer. TE represents Tris/EDTA (ethylenediaminetetraacetic acid). EPO mRNA was diluted with a TE buffer such that the final concentration was 0 to 400 ng/mL to prepare a nucleic acid diluted series. 10 μL of mRNA lipid nanoparticles diluted 5-fold with TE buffer and 90 μL of a nucleic acid dilution series were mixed in a 96-well plate, 100 μL of a Ribogreen reagent diluted 200-fold with TE buffer was added to each well, and then fluorescence (excitation wavelength: 485 nm, fluorescence wavelength: 535 nm) was measured using a fluorescence plate reader (Infinite 200 Pro M nano+, TECAN). From the obtained results, the outer water phase nucleic acid concentration of each measurement solution was calculated according to the standard addition method.
(Calculation of Encapsulation Rate)
By using the quantification results of the total mRNA concentration and the mRNA concentration in the outer water phase that were obtained through the above steps, the mRNA encapsulation rate of the mRNA lipid nanoparticles was calculated according to the following Equation.

ICR mice [3] = assay: EPO expression level in mice after intravenous EPO mRNA lipid nanoparticles (human EPO ELISA of plasma); type: in vivo; settings: mRNA dosage 0.1 mg/kg, plasma 6 hours after administration, Comparative Example set to 1
Description: as §1, §2
(§3) The dispersion liquid of mRNA lipid nanoparticles prepared in above <Preparation of EPO mRNA-encapsulating lipid nanoparticles> was intravenously administered to ICR mice at a mRNA dosage of 0.1 mg/kg. 6 hours after the administration, blood was collected from the caudal vena cava, thereby obtaining plasma. The human EPO […] was quantified by using the obtained blood plasma and Erythropoietin (EPO) Human Elisa Kit (Abcam.plc). The quantitative value is described as a relative amount of EPO protein in a case where Comparative Example is set to 1.

ICR mice [4] = assay: EPO expression level in mice, dose dependency (human EPO ELISA of plasma); type: in vivo; settings: intravenous, plasma 6 hours after administration
Description: as §1, §2
as §3, with “0.1, 0.5, and 1” for “0.1”, “where the amount of EPO protein at the time of 0.1 mg/kg administration in” for “where”

Row | Particle diameter (nm) [1] | PdI [1] | Nucleic acid encapsulation rate [2] | SMILES | Relative amount of EPO protein (with respect to Comparative Example 1) (ICR mice [3]) | Relative amount of EPO protein (with respect to Comparative Example 1 at 0.1 mg/kg) (ICR mice [4]; mRNA dosage 0.1 mg/kg) | Relative amount of EPO protein (with respect to Comparative Example 1 at 0.1 mg/kg) (ICR mice [4]; mRNA dosage 0.5 mg/kg) | Relative amount of EPO protein (with respect to Comparative Example 1 at 0.1 mg/kg) (ICR mice [4]; mRNA dosage 1.0 mg/kg)
1 | 105 nm | 0.06 | 84% | CCCCCCCOC(=O)CCCC(CCCCCC)OC(=O)OCCN(CCOC(=O)C(CCCCCCC)CCCCCCC)CCN(CC)CC (stereo not shown) [Compound 3, heptyl 3-ethyl-6-(2-((2-heptylnonanoyl)oxy)ethyl)-12-hexyl-10-oxo-9,11-dioxa-3,6-diazahexadecan-16-oate] | 3.16 | 1.91 | 17.26 | 27.22
2 | 161 nm | 0.07 | 50% | CCCCCCCC(=O)OCCN(CCOC(=O)OC(CCCCCC)CCCC(=O)OCC(CCCC)CCCCCC)CCN(CC)CC (stereo not shown) [Comparative Example, 2-butyloctyl 3-ethyl-12-hexyl-6-(2-(octanoyloxy)ethyl)-10-oxo-9,11-dioxa-3,6-diazahexadecan-16-oate, reference compound] | 1.00 | 1.00 | 0.25 | 1.10
3 | 98 nm | 0.13 | 94% | CCCCCCCCC(CCCCCC)C(=O)OCCN(CCCN(CC)CC)CCOC(=O)OC(CCCCCC)CCCCC(=O)OCCCCCCC (stereo not shown) [Compound 24, heptyl 3-ethyl-13-hexyl-7-(2-((2-hexyldecanoyl)oxy)ethyl)-11-oxo-10,12-dioxa-3,7-diazaoctadecan-18-oate] | 6.54 | 4.65 | 26.81 | 45.73
4 | 85 nm | 0.11 | 95% | CCCCCCCCC(CCCCCCCC)C(=O)OCCN(CCCN(CC)CC)CCOC(=O)OC(CCCCCC)CCCCC(=O)OCCCCCCC (stereo not shown) [Compound 23, heptyl 3-ethyl-13-hexyl-7-(2-((2-octyldecanoyl)oxy)ethyl)-11-oxo-10,12-dioxa-3,7-diazaoctadecan-1 8-oate] | 4.71 | 4.97 | 25.74 | 43.74
